Measured values published in PMC8991960, “A Bivalent Activatable Fluorescent Probe for Screening and Intravital Imaging of Chemotherapy‐Induced Cancer Cell Death” (Angewandte Chemie (International Ed. in English), 2021).
Starred links: 1 amine or outer side, 2 acyl side, 3 side chain; linkers in the order of their positions; H or OH if unused. Non-standard residues stand in square brackets, D forms with d. Residues, ends and D or L forms follow the SMILES beside them. X1 = CC1=CC(C)=[N+]2C1=C(c1cccc(-c3[nH]c4ccccc4c3C[C@H](N[*:1])C(=O)[*:2])c1)c1ccc(-c3ccc(C)s3)n1[B-]2(F)F

What was measured:
[1] = Stability analysis in mouse serum; type: in vitro ADME; conditions: mouse serum vs PBS, 24 h, 37 °C, 500 rpm; 25 µM (Figure S14) or 50 µM (method); HPLC after CH3CN protein precipitation, and fluorescence (exc 520 nm)
Excerpt: Optical intravital imaging is increasingly used for the preclinical evaluation of anticancer drugs in vivo. Although imaging modalities like computed tomography, positron emission tomography and magnetic resonance imaging can help to visualise whole intact organs in a non‐invasive manner,[26] they lack the spatiotemporal resolution needed to study dynamic interactions between individual tumour and stromal cells. This feature is critical to understand the mechanism of action of anticancer drugs and how they can affect interactions between cancer cells and immune cells in the tumour microenvironment.[27] Intravital imaging heavily relies on the acquisition of fluorescence signals using multiphoton microscopy, which provides cellular resolution with deep tissue penetration (≈500 μm) and minimal photodamage.[28] […] First, we analysed the chemical stability of Apotracker Red for in vivo studies by incubating the probe in mouse serum. […] When primary tumours measured around 0.5–1 cm in diameter, we administered cisplatin intraperitoneally (10 mg kg^−1). […]
fluorescence emission of Apotracker Red before and after incubation in mouse serum and […]
Fluorescence spectra were recorded after excitation at 520 nm. […]
Lipid layer assays . […] The LoD was calculated using the equation LoD = (3 × σ)/k, where σ is the standard […]

MCF7 cells = assay: Cell viability (TACS MTT cell proliferation assay); type: cell-based, human; conditions: MCF7, different concentrations, 3 h, n=5
Procedure: (§1) Figure S15. Cell viability experiments (TACS® MTT cell proliferation assay) after incubation of Apotracker Red in breast cancer cell lines (a: MCF7 cells, b: MDA-MB-231 cells) at different concentrations for 3 h. Data presented as means ± SD (n=5). P values obtained from one- way ANOVA using multiple comparisons (ns for p>0.05).
(§2) Figure S16. Quantification of E GFP+ macrophages in tumours from untreated and cisplatin-treated mice by time- lapse imaging on a spinning disk confocal microscope (λexc: 488 nm). Data presented as means ± SD of 8 random areas in 2- 3 mice per group (untreated or treated with 10 μg g-1 cisplatin for 72 h). […]

MDA-MB-231 cells = assay: Cell viability (TACS MTT cell proliferation assay); type: cell-based, human; conditions: MDA-MB-231, different concentrations, 3 h, n=5
Procedure: as §1, §2

Which “Proteolytic stability in mouse serum” value [1] does the source give for `CC1=CC(C)=[N+]2C1=C(c1cccc(-c3[nH]c4ccccc4c3C[C@@H]3NC(=O)[C@H](Cc4ccccc4)NC(=O)[C@H](Cc4c[nH]c5ccccc45)NC(=O)[C@H](CCCCN)NC(=O)[C@H](CCCCN)NC(=O)[C@H](CCCNC(=N)N)NC(=O)CNC3=O)c1)c1ccc(-c3ccc(C)s3)n1[B-]2(F)F` [Apotracker Red] (cyclo(F[X1]GRKKW)) here?
The value was “good proteolytic stability for up to 24 h”.

What about the “Cell toxicity (MTT)” value (MCF7 cells) of the same molecule?
Its value is “did not cause cell toxicity”.

And the “Cell toxicity (MTT)” value (MDA-MB-231 cells)?
The value was “did not cause cell toxicity”.
